| Structure (SMILES) | melting point [°C] |
| --- | --- |
| CCN1CCN(Cc2ccc(C(=O)Nc3ccc(C)c(Nc4nccc(-c5cccnc5)n4)c3)cc2)CC1 | 210 |
| CCCc1nn(-c2ccc(C(F)(F)F)cn2)cc1CCCOc1c(F)cccc1CC(=O)O | 105 to 106 |
| CCOC(=O)c1ccn(-c2ccc(OCC)cc2)n1 | 88 to 90 |
| CCCc1c(C2CCC(c3ccccc3)(N(C)C)CC2)[nH]c2ccccc12 (stereo unspecified) | 177 to 181 |
| C=Cc1cc(C)nc2c(OCc3ccccc3)cccc12 | 114 |
| COc1ccc(CNC(=O)c2ccc3c(c2)c(=O)n(Cc2ccccc2)c(=O)n3C)cc1 | 191 |
| OCc1cnoc1-c1ccc(F)c(Br)c1 | 134 to 135 |
| CC(O)c1cc(C(C)O)cc(S(N)(=O)=O)c1 (stereo unspecified) | 175 to 177 |
| CCCC1CC(O)N(C(C)=O)C1(C(=O)OCC)C(=O)OCC (stereo unspecified) | 105 to 106 |
| O=C(O)c1cccc([N+](=O)[O-])c1Nc1ccccc1Cl | 213 to 215 |
| CN(C)C=C(C#N)C#N | 81 to 82 |
| CC(=O)Oc1cccc(C(=O)N[C@@H](Cc2ccccc2)[C@H](O)C(=O)O)c1C | 189 to 191 |
| Cc1nc(N2CCN(Cc3ccc4nsnc4c3)C2=O)sc1C(=O)NCc1cccnc1 | 105 to 107 |
| CC(C)N(CCN(C(=O)N(C)C)c1cccc(N)n1)C(C)C | 86 to 88 |
| COc1ccc(S(=O)(=O)N=[N+]=[N-])cc1 | 48 to 50 |
| COc1ccc(Oc2ccc(C(C)=C3SCCCS3)cc2)cc1OC | 73.5 to 75.5 |
| Cc1cc2cc(CN3CCC(CCCC(N)=O)CC3)cnc2cc1NC(=O)c1ccc(-c2ccc(F)cc2)cc1 | 228 |
| CCCCc1nc2c(N)nc3ccc(OCC(=O)N4CCOCC4)cc3c2n1C | 257 |
| Cc1cc(C)c(-c2nc3ccc(C(=O)c4ccccc4)cc3[nH]2)[nH]1 | 225 to 229 |
| COc1ccc(-c2nc(Sc3ccccc3)n(C)c2-c2ccc(OC)cc2)cc1 | 115 to 117 |
| N#Cc1ccc(OCc2ccncc2)cc1OC(C(=O)O)c1ccccc1Br (racemic) | 171 to 172 |
| COc1ccnc(CCc2nc3cc(-c4ccc(NS(=O)(=O)c5ccccc5)cc4)cnc3[nH]2)c1 | 251 to 253 |

| Structure (SMILES) | melting point [°C] |
| --- | --- |
| O=c1c(Cl)c(Cl)cnn1C1OCCCC1Cl (stereo unspecified) | 109 to 110 |
| CCS(=O)(=O)c1nn(-c2ccccc2)c(=O)c2c(N)scc12 | 190 to 191 |
| O=C(Cc1cccnc1)Nc1cccc(-c2ccnc3c(C(=O)c4cccs4)cnn23)c1 | > 200 |
| C[C@@H](Nc1ncnc2ccncc12)c1ccccc1 | 138 |
| COC(=O)CN(NC(N)=O)c1ccc(OC)c(C)c1 | 174 to 176 |
| O=c1[nH]c2ccc(N3CCN(Cc4ccccc4)CC3)cc2c(=O)o1 | 235 |
| CCCCNCc1cn(CCC(=O)NC(C)(C)c2ccc(Cl)cc2)cn1 | 115 to 117 |
| Cc1cc(C)n(-c2nc(Nc3cccc(Cl)c3)c3ccccc3n2)n1 | 259 to 262 |
| CC(C)c1cc2c(c(C(C)C)c1)Oc1ccc(C(N)=O)cc1N(CCN(C)C)C2=O | 223 to 225 |
| COc1ccc2c(c1)CCC1CC(=O)N(c3ccccn3)N=C21 (stereo unspecified) | 194 to 196 |
| CCCCCCCCCCCCCCCCCCNC(=O)NCCCS(C)=O (stereo unspecified) | 105 |
| CC(C)(C)OC(=O)NC(Cc1cc(C(=O)c2cc(C(F)(F)F)cc(C(F)(F)F)c2)ccc1[N+](=O)[O-])C(=O)OC(C)(C)C (stereo unspecified) | 176 to 177 |
| COCCOCOc1c(C(C)(C)C)cc(-c2nc(Br)no2)cc1C(C)(C)C | 89 to 91 |
| C=CCN1CC(C)N(C(c2cccc(O)c2)c2ccc(C(=O)N(CC)CC)s2)CC1C (stereo unspecified) | 113 to 116 |
| CCOC(=O)c1ccc(C(=O)Nc2ccc3c(c2)CCC(C)(C)C(=O)N3C)cc1 | 183 to 184 |
| Cc1nc(Nc2ccc(F)cc2)nc(Br)c1C | 123 |
| O=C(O)Cc1ccc(CC2(CNS(=O)(=O)c3ccccc3)CCCC2)cc1 | 154 to 156 |
| Cc1cccc2c1C(=O)N1CC[C@H]1c1c(C(=O)OC3CCCCC3)ncn1-2 | 199 to 200 |
| CC(C)(C)OC(=O)Nc1ccc(-c2cccc(F)c2)cc1NC(=O)CC(=O)c1cccc(-n2ccnc2)c1 | 70 to 83 |
| CCCCCCCCCCCCCCCCCCOc1ccc(NC(=O)c2ccc(OC(C)=O)cc2)cc1 | 154 |
| COc1cccc2c1C13CCN(C(=O)C4CC4)C(C2)C1CCC(=O)C3 (stereo unspecified) | 144 to 147 |

Further lines, results first:

| melting point [°C] | Structure (SMILES) |
| --- | --- |
| 64 to 65 | CCCCCCCCCCCCCCCC(=O)OCc1cc2c(s1)-c1ccccc1OC2c1ccccc1 (stereo unspecified) |
| 233 to 234 | CCc1nc(NC(=O)C2=C(O)c3ccc4ccccc4c3S(=O)(=O)N2C)sc1C |
| 123 to 124 | O=C(CCc1cccnc1)NC(Cc1c[nH]c2ccccc12)C(=O)CCc1cc(C(F)(F)F)cc(C(F)(F)F)c1 (stereo unspecified) |
| 155 to 156 | CC(=O)c1ccsc1C(=O)O |
| 218 to 220 | O=C(Nc1ccc(C(=O)O)cc1)OCc1cn(-c2cc3cc(C(=O)O)c(=O)[nH]c3cc2C(F)(F)F)cn1 |
| 131 to 133 | CCOC(=O)c1cc(-c2ocnc2C)[nH]n1 |
| 112 to 115 | CCCc1c(OCCCCC(C)(C)c2nnn[nH]2)ccc(C(C)=O)c1O |
| 163 to 165 | CN(C)CC1CCCCN1CC(=O)N1c2ccccc2NC(=O)c2c1ccn2C (stereo unspecified) |
| 117 to 118 | O=C(NCCc1cccc2ccccc12)C1CC1 |
| 208 | O=C(Nc1ccc2ccc(Cl)nc2n1)Oc1ccccc1 |
| 118 to 119 | Cc1sc(-c2ccccc2)nc1COc1ccc(C=O)cc1 |
| 114 to 115 | C=C(C)COc1ccc(C(=O)C=Cc2ccccc2)c(O)c1 |
| 100 to 102 | CCOC(=O)CCc1ccc2c(c1)CC(NC(=O)OC(C)(C)C)CC2 (stereo unspecified) |
| 200 to 202 | Cc1cccc(C=NN2CCN(C3c4ccccc4C=C(C#N)c4ccccc43)CC2)n1 (stereo unspecified) |
| 183 to 192 | Clc1ccc2ncc3nc(Br)n(-c4ccccc4Cl)c3c2c1 |
| 203 to 204 | COc1cc2c(cc1C(F)(F)F)N(C(=O)N(c1cccc(C)c1)c1ncon1)CC2 |
| 170 to 172 | Oc1ccc([C@H]2OCCN3[C@@H](CCc4ccccc4)CC[C@H]23)cc1 (racemic) |
| 363 to 365 | NC(=O)c1nc(-c2cccc(O)c2)nc2c1[nH]c(=O)n2-c1ccccc1C(F)(F)F |
| 113 to 115 | O=C(NCO)N1CC(Oc2cccc(C(F)(F)F)c2)C1 |
| 135 to 143 | Cc1cc(C)c(-c2nc(Oc3ccccc3)nc(Oc3ccccc3)n2)c(C)c1 |
| 175 | COc1cc(O)nc(C(C)(C)C)n1 |
| 220 to 222 | CCS(=O)(=O)N(C(C)=O)c1cc(-n2nc3ccc(Cl)cn3c2=O)c(F)cc1C#N |
| 197 | CN(C)S(=O)(=O)c1cccc(NC(=O)c2cnn3c(C(F)F)cc(-c4ccc(C(F)(F)F)cc4)nc23)c1 |
| 254 to 256 | O=C(O)c1cnc(Nc2ccccc2O)[nH]c1=O |
| 150 to 152 | CN(C)C(=N)Nc1ccccc1-c1ccc(Cl)cc1 |
| 220 to 222 | CC(C)(C)c1cc(C2N(c3ccc(Cl)cc3)CCN2c2ccc(Cl)cc2)cc(C(C)(C)C)c1O |
| 177 to 178 | Oc1cc(-c2nn3c(c2Cl)CCCC3)c(F)cc1Cl |

| melting point [°C] | Structure (SMILES) |
| --- | --- |
| 244 to 245 | CC(=O)NCCNC(=O)c1ccc(Br)s1 |
| 61.7 to 63.6 | COC(=O)C(=O)Nc1ccccc1C(C)(C)C |
| 34.5 to 36 | CCNC(=O)c1ccccc1OC(C)(C)C |
| 137 to 140 | CS(=O)(=O)Nc1cc2c(cc1Oc1ccccc1)C(=O)C(Br)CO2 (stereo unspecified) |
| 173 | CCCCOc1ccc(S(=O)(=O)C2(C(=O)NO)CCN(Cc3ccc(OC)cc3)CC2)cc1 |
| 146 to 150 | O=Cc1cc(Oc2c(Cl)cc(-n3ncc(=O)[nH]c3=O)cc2Cl)ccc1O |
| 116 to 118 | O=C(O)[C@H](Cc1cccc(C(F)(F)F)c1)[C@@H](O)c1ccc(F)cc1 (racemic) |
| 235 to 236 | O=C(c1cc(C(F)(F)F)cc(C(F)(F)F)c1)N1CCC2(CC1)C(=O)NCN2c1cccc(Cl)c1 |
| 160 to 165 | CC(=O)Oc1cc(C(=O)N2CCC(C(=O)C3CCCCC3)CC2)c([N+](=O)[O-])cc1OC(C)=O |
| 93 to 95 | COC(=O)c1cc(N)ccc1O |
| 176 to 178 | O=C(NC(=O)N(Sc1ccccc1[N+](=O)[O-])c1ccc(Cl)cc1)c1c(F)cccc1F |
| 188 to 191 | CN1C(=O)CC[C@]2(C)c3ccc(Sc4ccc([N+](=O)[O-])cn4)cc3CC[C@@H]12 |
| 257 to 259 | COc1ccc2oc(C(=O)Nc3ccc(-c4ccc(S(=O)(=O)NC(C(=O)O)C(C)C)cc4)cc3)cc2c1 (stereo unspecified) |
| 205 to 206 | COc1c(C)c(Cl)c(C)c(Cl)c1CNC(=O)CCl |
| 115 to 117 | CS(=O)(=O)c1ccc(C(CC2CCCC2)C(=O)O)cc1F (stereo unspecified) |
| 176 to 177 | COC(=O)C(=NO)c1nc2cc(Cl)ccc2oc1=O |
| 144 | O=C1CCC(c2ccccc2)(c2ccccc2)C2CN(C(Cc3ccccc3)=NCCCc3ccccc3)CC12 (stereo unspecified) |
| 196 | CCC(C)C(=O)NC1CCC(CCN2CCN(c3nccc4c3OCC4)CC2)CC1 (racemic) |
| 50 to 52 | CCN(CC)CCNC(C(=O)NC(C)(C)C)c1ccccc1 (stereo unspecified) |
| 278 to 280 | CCOC(=O)c1c(-c2ccc(N3CCN(C)CC3)cc2)n(C)n(-c2ccc(C#N)cc2)c1=O |
| 178 to 179 | Cc1nc2c(OCc3c(Cl)cc(C(O)c4ccccc4)cc3Cl)cccn2c1Br (stereo unspecified) |
| 153 to 154 | COc1nc(C)c(C(C)O)cc1NC(=O)N1CCN(c2cc(C)cc(C)c2)CC1 (stereo unspecified) |
| 89 to 91 | CCN(C(=O)C(C)Oc1ccc(Oc2ncc(Cl)cc2Cl)cc1)C(CS)C(=O)O (stereo unspecified) |
| 245 to 251 | COc1ccc(CN=Nc2c(O)c(O)c(N=NCc3ccc(OC)cc3)c3ccccc23)cc1 |
| 131 to 133 | N#Cc1cnc2cc(C#CCCCN3CCOCC3)ccc2c1Nc1ccc(Cl)cc1Cl |
| 154 to 158 | O=C1OC(N2C(=O)NC(=O)C23C(=O)N(Cc2ccc(Cl)c(Cl)c2)c2ccccc23)c2ccccc21 (stereo unspecified) |

Reference: a melting point compilation (Tetko et al.; mined from patent text by program, amines drawn as free bases though some values may be those of a salt)
